Columns and labels:
[1] = test system: tight junctions (TJs) of the airway epithelium; conditions: rat trachea lumen, 10 mM EDTA for 30 min, vs native
Text: Quantification of airway epithelium integrity via bioimpedance measurement: To investigate the biophysical integrity of the airway epithelium nondestructively (FIG. 16), we created a platform that allowed quantification of the bioelectrical impedance (bioimpedance) of the airway tissue (FIG. 16A-B). This platform utilizes four electrode probes to measure the electrical properties of the tissue (FIG. 16C). During measurements, alternating electrical current (AC) at various frequencies (20 Hz-135 kHz) and 100 μA of magnitude were injected into the tissue using two current carrying electrodes (CC1 and CC2), while two voltage pick-up electrodes (PU1 and PU2) measured the potential distribution (FIG. 16C). The data were analyzed using the Cole model that describes the biological tissue as a combination of a resistor (R) and a constant phase element (CPE) (FIG. 16D, i).

[2] = test system: human lungs; assay: Xenogeneic cross-circulation support of human lungs with porcine host; conditions: added to the immunosuppressive therapy, human lungs on xenogeneic cross-circulation
Text: Preliminary Results: We support human lungs utilizing EVLP and a xenogeneic cross-circulation platform. […] With the addition of cobra venom factor to the immunosuppressive therapy, the risk of acute rejection was mitigated.

Compound | bioimpedance of treated airway tissue [1] | risk of acute rejection [2]
O=C(O)CN(CCN(CC(=O)O)CC(=O)O)CC(=O)O [EDTA, ethylenediaminetetraacetic acid] | reduced impedance | –
cobra venom factor | – | mitigated

— patent publication US20260035643A1, “PHYSIOLOGIC AIRWAY MUCOSA AND PARENCHYMA BIOREACTOR AND EX VIVO WHOLE LUNG MODEL OF CYSTIC FIBROSIS FOR DISEASE MODELING AND THERAPEUTIC SCREENING” (The Trustees of Columbia University in the City of New York, priority 2023, published 2026)
